In patent publication US8802720B2, “Acylamino-substituted fused cyclopentanecarboxylic acid derivatives and their use as pharmaceuticals” (SANOFI, priority 2008, dated 2014):

Molecular target: human Edg-2 receptor (LPA1 receptor) (Homo sapiens, UniProt Q92633)
Assay: Edg-2 receptor inhibition by FLIPR calcium fluorescence measurement (LPA-mediated calcium liberation)
Format: cell-based
Conditions: CHO cells stably overexpressing human Edg-2 receptor; LPA 18:1 100 nM; fluo-4 fluorescence; triplicate; read-out: Inhibitory concentrations IC50 for inhibition of the Edg-2 receptor
Method in brief: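 CHO cells stably overexpressing human Edg-2 were fluo-4 loaded and pre-incubated ~5 min with compound (≤0.3% DMSO) in HBSS/HEPES/probenecid, pH 7.5. Then LPA 18:1 at 100 nM final was added. Peak calcium fluorescence over ~3 min, baseline-corrected versus DMSO, gave % inhibition in triplicate and IC50.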

Chain of human Edg-2 receptor (LPA1 receptor) (Q92633 whole entry): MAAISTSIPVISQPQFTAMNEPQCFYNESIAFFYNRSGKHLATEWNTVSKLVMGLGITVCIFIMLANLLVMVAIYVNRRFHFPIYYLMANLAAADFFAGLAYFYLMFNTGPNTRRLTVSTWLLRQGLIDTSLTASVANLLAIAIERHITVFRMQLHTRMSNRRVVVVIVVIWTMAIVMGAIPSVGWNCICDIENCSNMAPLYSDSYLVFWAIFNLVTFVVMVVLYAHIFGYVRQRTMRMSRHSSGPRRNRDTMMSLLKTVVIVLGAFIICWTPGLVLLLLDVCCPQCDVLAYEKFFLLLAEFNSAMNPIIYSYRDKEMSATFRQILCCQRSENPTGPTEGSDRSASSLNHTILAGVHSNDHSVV

Compound | IC50
COc1ccc(C(=O)NC2(C(=O)O)Cc3ccccc3C2)cc1OCCc1cccc(O)c1 [Example 251, 2-{3-[2-(3-Hydroxy-phenyl)-ethoxy]-4-methoxy-benzoylamino}-indane-2-carboxylic acid] | 1000 to 30000 nM
Cc1cccc(CCOc2cc(C(=O)NC3(C(=O)O)Cc4ccccc4C3)ccc2O)c1 [Example 254, 2-[4-Hydroxy-3-(2-m-tolyl-ethoxy)-benzoylamino]-indane-2-carboxylic acid] | 1000 to 30000 nM
Cc1cccc(CCOc2cc(C(=O)NC3(C(=O)O)Cc4ccccc4C3)ccc2OCCC(C)(C)C)c1 [Example 261] | 100 to 1000 nM
Cc1cccc(CCOc2cc(C(=O)NC3(C(=O)O)Cc4ccccc4C3)ccc2OCCN(C)C)c1 [Example 265] | 100 to 1000 nM
Cc1cccc(CCOc2cc(C(=O)NC3(C(=O)O)Cc4ccccc4C3)ccc2OCC(=O)O)c1 [Example 271, 2-[4-Carboxymethoxy-3-(2-m-tolyl-ethoxy)-benzoylamino]-indane-2-carboxylic acid] | 100 to 1000 nM
Cc1cccc(CCOc2cc(C(=O)NC3(C(=O)O)Cc4ccccc4C3)ccc2OC2CC2)c1 [Example 272, 2-[4-Cyclopropoxy-3-(2-m-tolyl-ethoxy)-benzoylamino]-indane-2-carboxylic acid] | 100 to 1000 nM
CCc1sc(C(=O)NC2(C(=O)O)Cc3ccccc3C2)nc1OCCc1cccc(C)c1 [Example 273, 2-{[5-Ethyl-4-(2-m-tolyl-ethoxy)-thiazole-2-carbonyl]-amino}-indane-2-carboxylic acid] | 100 to 1000 nM
COc1ccc(C(=O)NC2(C(=O)O)Cc3ccccc3C2)c(F)c1OCCc1cccc(C)c1 [Example 277, 2-[2-Fluoro-4-methoxy-3-(2-m-tolyl-ethoxy)-benzoylamino]-indane-2-carboxylic acid] | 1000 to 30000 nM
COc1ccc(C(=O)NC2(C(=O)O)Cc3ccccc3C2)cc1OCCC1CCCC(C)C1 (stereo not shown) [Example 278, 2-{4-Methoxy-3-[2-(3-methyl-cyclohexyl)-ethoxy]-benzoylamino}-indane-2-carboxylic acid] | 1000 to 30000 nM
COc1ccc(C(=O)NC2(C(=O)O)Cc3ccccc3C2)cc1COCc1cccc(C)c1 [Example 279, 2-[4-Methoxy-3-(3-methyl-benzyloxymethyl)-benzoylamino]-indane-2-carboxylic acid] | 100 to 1000 nM
COc1ccc(C(=O)NC2(C(=O)O)Cc3ccccc3C2)cc1-c1ccc(Cl)cc1 [Example 280] | 100 to 1000 nM
COc1ccc(C(=O)NC2(C(=O)O)Cc3ccccc3C2)cc1-c1ccccc1Cl [Example 281] | 1000 to 30000 nM
COc1ccc(C(=O)NC2(C(=O)O)Cc3ccccc3C2)cc1-c1cncc(Cl)c1 [Example 282, 2-[3-(5-chloro-pyridin-3-yl)-4-methoxy-benzoylamino]-indane-2-carboxylic acid] | 100 to 1000 nM
COc1ccc(C(=O)NC2(C(=O)O)Cc3ccccc3C2)cc1-c1cccc(C#N)n1 [Example 283] | 1000 to 30000 nM
COc1ccc(C(=O)NC2(C(=O)O)Cc3ccccc3C2)cc1-c1cccc(NC(C)=O)c1 [Example 287] | 100 to 1000 nM
CCOc1cccc(-c2cc(C(=O)NC3(C(=O)O)Cc4ccccc4C3)ccc2OC)c1 [Example 288] | 100 to 1000 nM
COc1ccc(C(=O)NC2(C(=O)O)Cc3ccccc3C2)cc1-c1cc(C(F)(F)F)ccc1Cl [Example 289] | 100 to 1000 nM
CCCc1ccc(-c2cc(C(=O)NC3(C(=O)O)Cc4ccccc4C3)ccc2OC)cc1 [Example 290] | 1000 to 30000 nM
COc1ccc(C(=O)NC2(C(=O)O)Cc3ccccc3C2)cc1-c1ccc(C)c(C)c1 [Example 291] | 100 to 1000 nM
COc1ccc(C(=O)NC2(C(=O)O)Cc3ccccc3C2)cc1-c1ccccc1CN(C)C [Example 299] | 1000 to 30000 nM
COc1ccc(C(=O)NC2(C(=O)O)Cc3ccccc3C2)cc1-c1cc(C)cs1 [Example 300] | 100 to 1000 nM
COc1ccc(C(=O)NC2(C(=O)O)Cc3ccccc3C2)cc1-c1cccc(OCc2ccccc2)c1 [Example 305] | 100 to 1000 nM
COc1ccc(C(=O)NC2(C(=O)O)Cc3ccccc3C2)cc1-c1cccc(S(C)(=O)=O)c1 [Example 309] | 100 to 1000 nM
COc1ccc(C(=O)NC2(C(=O)O)Cc3ccccc3C2)cc1-c1ccc(Cl)c(C(F)(F)F)c1 [Example 310] | 100 to 1000 nM

More lines, now with the values ahead:

IC50 | Compound
100 to 1000 nM | COc1cc(C(=O)NC2(C(=O)O)Cc3ccccc3C2)ccc1OCCc1cccc(C)c1 [Example 252, 2-[3-Methoxy-4-(2-m-tolyl-ethoxy)-benzoylamino]-indane-2-carboxylic acid]
< 100 nM | Cc1cccc(CCOc2cc(C(=O)NC3(C(=O)O)Cc4ccccc4C3)ccc2OCc2ccccc2)c1 [Example 253, 2-[4-Benzyloxy-3-(2-m-tolyl-ethoxy)-benzoylamino]-indane-2-carboxylic acid]
< 100 nM | Cc1cccc(CCOc2cc(C(=O)NC3(C(=O)O)Cc4ccccc4C3)ccc2OC(C)C)c1 [Example 255, 2-[4-Isopropoxy-3-(2-m-tolyl-ethoxy)-benzoylamino]-indane-2-carboxylic acid]
< 100 nM | COCCOc1ccc(C(=O)NC2(C(=O)O)Cc3ccccc3C2)cc1OCCc1cccc(C)c1 [Example 256]
< 100 nM | Cc1cccc(CCOc2cc(C(=O)NC3(C(=O)O)Cc4ccccc4C3)ccc2OCC2CCCCC2)c1 [Example 257]
< 100 nM | Cc1cccc(CCOc2cc(C(=O)NC3(C(=O)O)Cc4ccccc4C3)ccc2OCC2CCOC2)c1 (stereo not shown) [Example 258]
< 100 nM | Cc1cccc(CCOc2cc(C(=O)NC3(C(=O)O)Cc4ccccc4C3)ccc2OCCOC(C)(C)C)c1 [Example 259]
100 to 1000 nM | Cc1cccc(CCOc2cc(C(=O)NC3(C(=O)O)Cc4ccccc4C3)ccc2OCCC(F)(F)F)c1 [Example 260]
< 100 nM | Cc1cccc(CCOc2cc(C(=O)NC3(C(=O)O)Cc4ccccc4C3)ccc2OCC2CCC2)c1 [Example 262]
< 100 nM | CCCCCOc1ccc(C(=O)NC2(C(=O)O)Cc3ccccc3C2)cc1OCCc1cccc(C)c1 [Example 263]
< 100 nM | Cc1cccc(CCOc2cc(C(=O)NC3(C(=O)O)Cc4ccccc4C3)ccc2OCC2CCCCO2)c1 (stereo not shown) [Example 264]
< 100 nM | Cc1cccc(CCOc2cc(C(=O)NC3(C(=O)O)Cc4ccccc4C3)ccc2OCC2CC2)c1 [Example 266, 2-[4-cyclopropylmethoxy-3-(2-m-tolyl-ethoxy)-benzoylamino]-indane-2-carboxylic acid]
< 100 nM | CSCCOc1ccc(C(=O)NC2(C(=O)O)Cc3ccccc3C2)cc1OCCc1cccc(C)c1 [Example 267]
< 100 nM | Cc1cccc(CCOc2cc(C(=O)NC3(C(=O)O)Cc4ccccc4C3)ccc2OCCF)c1 [Example 268]
< 100 nM | C=CCOc1ccc(C(=O)NC2(C(=O)O)Cc3ccccc3C2)cc1OCCc1cccc(C)c1 [Example 269]
< 100 nM | Cc1cccc(CCOc2cc(C(=O)NC3(C(=O)O)Cc4ccccc4C3)ccc2OCCO)c1 [Example 270, 2-[4-(2-Hydroxy-ethoxy)-3-(2-m-tolyl-ethoxy)-benzoylamino]-indane-2-carboxylic acid]
< 100 nM | COc1ncc(C(=O)NC2(C(=O)O)Cc3ccccc3C2)cc1OCCc1cc(C)ccc1F [Example 274, 2-({5-[2-(2-Fluoro-5-methyl-phenyl)-ethoxy]-6-methoxy-pyridine-3-carbonyl}-amino)-indane-2-carboxylic acid]

IC50 | Compound
< 100 nM | COc1ncc(C(=O)NC2(C(=O)O)Cc3ccccc3C2)cc1OCCc1cccc(CCO)c1 [Example 275, 2-[(5-{2-[3-(2-Hydroxy-ethyl)-phenyl]-ethoxy}-6-methoxy-pyridine-3-carbonyl)-amino]-indane-2-carboxylic acid]
< 100 nM | COc1c(F)cc(C(=O)NC2(C(=O)O)Cc3ccccc3C2)cc1OCCc1cccc(CCO)c1 [Example 276, 2-(3-Fluoro-5-{2-[3-(2-hydroxy-ethyl)-phenyl]-ethoxy}-4-methoxy-benzoylamino)-indane-2-carboxylic acid]
< 100 nM | COc1ccc(C(=O)NC2(C(=O)O)Cc3ccccc3C2)cc1-c1cncc(C#N)c1 [Example 284]
< 100 nM | COc1ccc(C(=O)NC2(C(=O)O)Cc3ccccc3C2)cc1-c1cccc(C)c1 [Example 286]
< 100 nM | COc1ccc(C(=O)NC2(C(=O)O)Cc3ccccc3C2)cc1-c1ccc(Cl)c(Cl)c1 [Example 292]
< 100 nM | COc1ccc(C(=O)NC2(C(=O)O)Cc3ccccc3C2)cc1-c1cccc(Cl)c1Cl [Example 293]
< 100 nM | COc1ccc(C(=O)NC2(C(=O)O)Cc3ccccc3C2)cc1-c1cc(C)c(OC)c(C)c1 [Example 294]
< 100 nM | COc1ccc(C(=O)NC2(C(=O)O)Cc3ccccc3C2)cc1-c1csc2ccccc12 [Example 295]
< 100 nM | COc1ccc(Cl)cc1-c1cc(C(=O)NC2(C(=O)O)Cc3ccccc3C2)ccc1OC [Example 296]
< 100 nM | COc1ccc(C(=O)NC2(C(=O)O)Cc3ccccc3C2)cc1-c1cccc(C#N)c1 [Example 297]
< 100 nM | COc1ccc(C(=O)NC2(C(=O)O)Cc3ccccc3C2)cc1-c1cccc(SC)c1 [Example 301]
< 100 nM | COc1ccc(C(=O)NC2(C(=O)O)Cc3ccccc3C2)cc1-c1cccc(OC(F)(F)F)c1 [Example 302]
< 100 nM | COc1ccc(C(=O)NC2(C(=O)O)Cc3ccccc3C2)cc1-c1cc(Cl)ccc1Cl [Example 303]
< 100 nM | COc1ccc(F)cc1-c1cc(C(=O)NC2(C(=O)O)Cc3ccccc3C2)ccc1OC [Example 304]
< 100 nM | COc1ccc(C(=O)NC2(C(=O)O)Cc3ccccc3C2)cc1-c1cc(F)c(F)c(F)c1 [Example 306]
< 100 nM | COc1ccc(C(=O)NC2(C(=O)O)Cc3ccccc3C2)cc1-c1cccc(NS(C)(=O)=O)c1 [Example 307]
< 100 nM | CCSc1cccc(-c2cc(C(=O)NC3(C(=O)O)Cc4ccccc4C3)ccc2OC)c1 [Example 308]
